Assay results published in patent US10807986B2, “Fused pyrimidine compound or salt thereof” (TAIHO PHARMACEUTICAL CO., LTD., priority 2016, dated 2020).

Assay: Evaluation of stability in liver microsome
Conditions: mouse liver microsome 0.25 mg/mL, test compound 1 μM, 37° C., 30 minutes

Row | Structure (SMILES) | Remaining (%)
1 | COCc1ccc(NC(=O)c2c(OCC(C)OC)n(C3(C)CC3)c3ncnc(N)c23)cc1 (stereo not drawn) [Example 100, 4-amino-N-(4-(methoxymethyl)phenyl)-6-(2-methoxypropoxy)-7-(1-methylcyclopropyl)-7H-pyrrolo[2,3-d]pyrimidine-5-carboxamide] | 76%
2 | COCc1ccc(NC(=O)c2c(OCC3CCOC3)n(C3(C)CC3)c3ncnc(N)c23)cc1 (stereo not drawn) [Example 101, 4-amino-N-(4-(methoxymethyl)phenyl)-7-(1-methylcyclopropyl)-6-((tetrahydrofuran-3-yl)methoxy)-7H-pyrrolo[2,3-d]pyrimidine-5-carboxamide] | 68%
3 | COCc1ccc(NC(=O)c2c(OCC3CCCCO3)n(C3(C)CC3)c3ncnc(N)c23)cc1 (stereo not drawn) [Example 102, 4-amino-N-(4-(methoxymethyl)phenyl)-7-(1-methylcyclopropyl)-6-((tetrahydro-2H-pyran-2-yl)methoxy)-7H-pyrrolo[2,3-d]pyrimidine-5-carboxamide] | 60%
4 | COCc1ccc(NC(=O)c2c(C#CCC3(O)CCC3)n(C3(C)CC3)c3ncnc(N)c23)cc1 [Example 103, 4-amino-6-(3-(1-hydroxycyclobutyl)prop-1-yn-1-yl)-N-(4-(methoxymethyl)phenyl)-7-(1-methylcyclopropyl)-7H-pyrrolo[2,3-d]pyrimidine-5-carboxamide] | 60%
5 | COCc1ccc(NC(=O)c2c(C#CC(O)C3CC3)n(C3(C)CC3)c3ncnc(N)c23)cc1 (stereo not drawn) [Example 104, 4-amino-6-(3-cyclopropyl-3-hydroxyprop-1-yn-1-yl)-N-(4-(methoxymethyl)phenyl)-7-(1-methylcyclopropyl)-7H-pyrrolo[2,3-d]pyrimidine-5-carboxamide] | 52%

Second part, the compound after the results:

Row | Remaining (%) | Structure (SMILES)
6 | 52% | COCc1ccc(NC(=O)c2c(C#CCN3CCCCC3)n(C3(C)CC3)c3ncnc(N)c23)cc1 [Example 105, 4-amino-N-[4-(methoxymethyl)phenyl]-7-(1-methylcyclopropyl)-6-(3-(piperidin-1-yl)prop-1-yn-1-yl)-7H-pyrrolo[2,3-d]pyrimidine-5-carboxamide]
7 | 68% | COCc1ccc(NC(=O)c2c(/C=C/CO)n(C3(C)CC3)c3ncnc(N)c23)cc1 [Example 109, (E)-4-amino-6-(3-hydroxyprop-1-en-1-yl)-N-(4-(methoxymethyl)phenyl)-7-(1-methylcyclopropyl)-7H-pyrrolo[2,3-d]pyrimidine-5-carboxamide]
8 | 79% | COCc1ccc(NC(=O)c2c(C#Cc3ccccc3OC)n(C3(C)CC3)c3ncnc(N)c23)cc1 [Example 113, 4-amino-N-(4-(methoxymethyl)phenyl)-6-((2-methoxyphenyl)ethynyl)-7-(1-methylcyclopropyl)-7H-pyrrolo[2,3-d]pyrimidine-5-carboxamide]
9 | 55% | CCn1nccc1C#Cc1c(C(=O)Nc2ccc(COC)cc2)c2c(N)ncnc2n1C1(C)CC1 [Example 114, 4-amino-6-((1-ethyl-1H-pyrazol-5-yl)ethynyl)-N-(4-(methoxymethyl)phenyl)-7-(1-methylcyclopropyl)-7H-pyrrolo[2,3-d]pyrimidine-5-carboxamide]
10 | 55% | CCOc1c(C(=O)Nc2ccc(-c3ccco3)cc2)c2c(N)ncnc2n1C1(C)CC1 [Example 116, 4-amino-6-ethoxy-N-(4-(furan-2-yl)phenyl)-7-(1-methylcyclopropyl)-7H-pyrrolo[2,3-d]pyrimidine-5-carboxamide]
11 | 73% | CCn1cc(C#Cc2c(C(=O)Nc3ccc(COC)cc3)c3c(N)ncnc3n2C2(C)CC2)cn1 [Example 118, 4-amino-6-((1-ethyl-1H-pyrazol-4-yl)ethynyl)-N-(4-(methoxymethyl)phenyl)-7-(1-methylcyclopropyl)-7H-pyrrolo[2,3-d]pyrimidine-5-carboxamide]
12 | 70% | COCc1ccc(NC(=O)c2c(C#Cc3cccs3)n(C3(C)CC3)c3ncnc(N)c23)cc1 [Example 119, 4-amino-N-(4-(methoxymethyl)phenyl)-7-(1-methylcyclopropyl)-6-(thiophen-2-ylethynyl)-7H-pyrrolo[2,3-d]pyrimidine-5-carboxamide]
